# Measured values taken from paper PMC7714403 (JCI Insight, 2020).
# Like-named read-outs stand apart in the source and are kept apart here.
# Experiments:
# Assay in all cases: KiNativ, MOLM13 live cells
# Format in all cases: cell-based
# AurB = AurB (Homo sapiens, UniProt Q96GD4); settings: MOLM-13; 100 nM, 2 hours; Lys1; read-out: Inhibition vs DMSO
# Procedure: (§1) Samples were analyzed by KiNativ in situ kinase profiling by ActivX Biosciences.
# CDK10 = CDK10 (Homo sapiens, UniProt Q15131); settings: MOLM-13; 100 nM, 2 hours; Lys2; read-out: Inhibition vs DMSO
# Procedure: as §1
# CDK5 = CDK5 (Homo sapiens, UniProt Q00535); settings: MOLM-13, 2 h, 100 nM
# CDK5, sequence (Q00535 whole entry): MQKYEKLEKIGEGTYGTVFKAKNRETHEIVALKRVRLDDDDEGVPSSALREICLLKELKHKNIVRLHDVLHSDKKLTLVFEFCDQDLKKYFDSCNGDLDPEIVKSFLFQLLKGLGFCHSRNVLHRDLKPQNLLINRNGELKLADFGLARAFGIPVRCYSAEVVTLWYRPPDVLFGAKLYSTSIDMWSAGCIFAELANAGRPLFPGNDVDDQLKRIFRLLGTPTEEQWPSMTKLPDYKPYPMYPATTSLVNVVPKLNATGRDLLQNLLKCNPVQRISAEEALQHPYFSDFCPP
# Procedure: as §1
# CDK6 = CDK6 (Homo sapiens, UniProt Q00534); settings: MOLM-13; 100 nM, 2 hours; Lys2; read-out: Inhibition vs DMSO
# Procedure: as §1
# DNAPK = DNAPK (Homo sapiens, UniProt P78527); settings: MOLM-13, 2 h, 100 nM, ATP, read-out: Inhibition vs DMSO
# DNAPK, sequence (P78527 2-4128 limits assumed): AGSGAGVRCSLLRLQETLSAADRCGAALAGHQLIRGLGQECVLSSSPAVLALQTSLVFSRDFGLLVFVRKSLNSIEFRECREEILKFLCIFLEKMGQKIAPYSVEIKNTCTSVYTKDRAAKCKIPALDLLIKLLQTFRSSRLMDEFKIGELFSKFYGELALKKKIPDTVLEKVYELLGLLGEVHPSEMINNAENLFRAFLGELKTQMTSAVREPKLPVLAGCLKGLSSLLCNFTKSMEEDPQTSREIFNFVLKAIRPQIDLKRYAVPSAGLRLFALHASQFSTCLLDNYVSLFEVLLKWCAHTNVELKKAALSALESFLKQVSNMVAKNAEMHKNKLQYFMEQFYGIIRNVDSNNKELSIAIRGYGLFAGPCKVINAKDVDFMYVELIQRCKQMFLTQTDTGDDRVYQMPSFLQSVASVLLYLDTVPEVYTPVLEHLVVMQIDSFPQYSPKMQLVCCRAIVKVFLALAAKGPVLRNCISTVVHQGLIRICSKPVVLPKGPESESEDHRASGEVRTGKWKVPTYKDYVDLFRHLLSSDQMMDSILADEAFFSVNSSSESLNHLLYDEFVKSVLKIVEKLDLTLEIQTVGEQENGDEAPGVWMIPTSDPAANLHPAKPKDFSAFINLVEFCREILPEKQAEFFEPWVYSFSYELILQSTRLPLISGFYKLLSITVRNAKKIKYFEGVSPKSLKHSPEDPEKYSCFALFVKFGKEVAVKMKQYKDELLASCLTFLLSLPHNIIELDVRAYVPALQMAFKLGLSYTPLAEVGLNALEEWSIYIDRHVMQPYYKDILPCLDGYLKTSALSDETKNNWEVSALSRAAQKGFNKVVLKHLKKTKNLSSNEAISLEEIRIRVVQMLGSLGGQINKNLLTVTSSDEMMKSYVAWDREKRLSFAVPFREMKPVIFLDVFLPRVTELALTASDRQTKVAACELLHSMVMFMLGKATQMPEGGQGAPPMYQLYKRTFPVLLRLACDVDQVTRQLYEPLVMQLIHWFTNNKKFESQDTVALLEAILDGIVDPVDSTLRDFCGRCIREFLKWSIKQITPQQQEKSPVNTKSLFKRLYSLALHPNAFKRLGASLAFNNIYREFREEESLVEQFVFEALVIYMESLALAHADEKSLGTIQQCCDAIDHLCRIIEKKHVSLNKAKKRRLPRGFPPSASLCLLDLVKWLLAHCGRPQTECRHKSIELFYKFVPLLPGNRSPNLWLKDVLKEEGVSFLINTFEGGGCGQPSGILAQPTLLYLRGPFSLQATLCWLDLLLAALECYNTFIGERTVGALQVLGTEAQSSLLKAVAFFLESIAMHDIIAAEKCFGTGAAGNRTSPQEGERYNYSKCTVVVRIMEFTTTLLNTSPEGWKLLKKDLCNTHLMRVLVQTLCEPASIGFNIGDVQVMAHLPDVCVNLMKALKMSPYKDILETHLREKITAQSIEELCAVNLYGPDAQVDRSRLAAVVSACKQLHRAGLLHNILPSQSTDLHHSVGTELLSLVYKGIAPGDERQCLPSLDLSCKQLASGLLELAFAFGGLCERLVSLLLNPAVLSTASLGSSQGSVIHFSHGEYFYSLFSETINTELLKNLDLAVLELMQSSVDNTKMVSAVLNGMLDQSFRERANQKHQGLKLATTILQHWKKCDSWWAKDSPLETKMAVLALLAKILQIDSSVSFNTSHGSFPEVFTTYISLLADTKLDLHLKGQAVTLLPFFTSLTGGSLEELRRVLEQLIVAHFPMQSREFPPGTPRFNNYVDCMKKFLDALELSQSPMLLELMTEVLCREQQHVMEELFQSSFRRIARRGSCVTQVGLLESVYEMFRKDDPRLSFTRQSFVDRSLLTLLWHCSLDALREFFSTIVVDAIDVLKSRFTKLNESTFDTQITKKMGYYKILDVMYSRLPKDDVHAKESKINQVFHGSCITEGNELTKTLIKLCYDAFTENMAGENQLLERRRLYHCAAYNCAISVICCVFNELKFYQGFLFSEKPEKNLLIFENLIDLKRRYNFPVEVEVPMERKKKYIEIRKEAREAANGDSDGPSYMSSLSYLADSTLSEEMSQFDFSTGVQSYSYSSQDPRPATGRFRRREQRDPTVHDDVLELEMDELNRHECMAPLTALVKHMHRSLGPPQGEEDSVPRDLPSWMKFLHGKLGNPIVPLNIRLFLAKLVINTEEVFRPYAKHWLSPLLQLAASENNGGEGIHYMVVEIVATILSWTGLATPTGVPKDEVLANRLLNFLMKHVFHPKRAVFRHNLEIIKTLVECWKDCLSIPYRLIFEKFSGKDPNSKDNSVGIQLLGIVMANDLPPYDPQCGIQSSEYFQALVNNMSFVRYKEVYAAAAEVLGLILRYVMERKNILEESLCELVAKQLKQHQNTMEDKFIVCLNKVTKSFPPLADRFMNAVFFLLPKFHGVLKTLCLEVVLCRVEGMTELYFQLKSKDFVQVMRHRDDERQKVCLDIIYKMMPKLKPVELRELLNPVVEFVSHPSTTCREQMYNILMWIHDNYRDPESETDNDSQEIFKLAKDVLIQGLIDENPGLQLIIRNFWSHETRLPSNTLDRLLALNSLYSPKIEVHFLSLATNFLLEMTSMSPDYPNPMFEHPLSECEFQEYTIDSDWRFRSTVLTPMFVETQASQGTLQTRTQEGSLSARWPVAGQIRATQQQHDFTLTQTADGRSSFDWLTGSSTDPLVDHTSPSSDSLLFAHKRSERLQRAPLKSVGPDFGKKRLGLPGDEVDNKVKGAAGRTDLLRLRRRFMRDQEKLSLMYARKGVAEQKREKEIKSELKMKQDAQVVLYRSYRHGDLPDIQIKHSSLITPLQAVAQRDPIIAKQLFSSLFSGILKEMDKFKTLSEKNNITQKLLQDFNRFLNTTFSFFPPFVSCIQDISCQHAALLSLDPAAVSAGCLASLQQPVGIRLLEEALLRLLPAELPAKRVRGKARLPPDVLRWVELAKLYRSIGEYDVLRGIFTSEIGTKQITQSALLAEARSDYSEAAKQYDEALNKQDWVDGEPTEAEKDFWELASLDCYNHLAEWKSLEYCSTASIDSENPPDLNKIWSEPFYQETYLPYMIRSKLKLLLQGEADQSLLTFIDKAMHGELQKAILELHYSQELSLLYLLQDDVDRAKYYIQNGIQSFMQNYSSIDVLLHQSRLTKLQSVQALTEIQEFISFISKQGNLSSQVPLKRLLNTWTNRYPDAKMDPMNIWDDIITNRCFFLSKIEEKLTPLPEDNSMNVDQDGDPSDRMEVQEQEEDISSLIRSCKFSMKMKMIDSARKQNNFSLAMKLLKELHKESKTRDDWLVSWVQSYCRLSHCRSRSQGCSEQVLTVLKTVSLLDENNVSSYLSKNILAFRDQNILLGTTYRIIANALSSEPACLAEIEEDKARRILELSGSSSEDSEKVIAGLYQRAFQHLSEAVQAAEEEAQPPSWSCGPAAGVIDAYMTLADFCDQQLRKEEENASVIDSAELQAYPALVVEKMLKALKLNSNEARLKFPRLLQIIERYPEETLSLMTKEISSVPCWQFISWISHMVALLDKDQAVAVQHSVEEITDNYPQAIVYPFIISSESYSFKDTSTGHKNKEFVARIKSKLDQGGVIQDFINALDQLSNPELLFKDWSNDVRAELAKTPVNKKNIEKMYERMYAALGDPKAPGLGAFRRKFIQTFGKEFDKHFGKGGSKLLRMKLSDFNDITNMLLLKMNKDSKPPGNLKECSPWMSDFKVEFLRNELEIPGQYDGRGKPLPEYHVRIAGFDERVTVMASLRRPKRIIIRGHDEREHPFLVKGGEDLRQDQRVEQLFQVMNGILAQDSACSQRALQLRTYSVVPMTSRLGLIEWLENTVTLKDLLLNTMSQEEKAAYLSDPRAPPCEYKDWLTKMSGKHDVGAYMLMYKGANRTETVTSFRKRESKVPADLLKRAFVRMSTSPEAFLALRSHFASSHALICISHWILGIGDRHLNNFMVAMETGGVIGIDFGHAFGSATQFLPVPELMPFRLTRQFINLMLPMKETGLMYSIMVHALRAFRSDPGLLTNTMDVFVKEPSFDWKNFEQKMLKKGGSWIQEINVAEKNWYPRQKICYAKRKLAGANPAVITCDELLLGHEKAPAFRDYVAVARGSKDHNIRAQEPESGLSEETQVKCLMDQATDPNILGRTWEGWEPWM
# Procedure: as §1
# GCK = biological target: T1, GCK (Homo sapiens, UniProt Q12851); settings: MOLM-13; 100 nM, 2 hours; Lys2; read-out: Inhibition vs DMSO
# T1 sequence (Q12851 1-820): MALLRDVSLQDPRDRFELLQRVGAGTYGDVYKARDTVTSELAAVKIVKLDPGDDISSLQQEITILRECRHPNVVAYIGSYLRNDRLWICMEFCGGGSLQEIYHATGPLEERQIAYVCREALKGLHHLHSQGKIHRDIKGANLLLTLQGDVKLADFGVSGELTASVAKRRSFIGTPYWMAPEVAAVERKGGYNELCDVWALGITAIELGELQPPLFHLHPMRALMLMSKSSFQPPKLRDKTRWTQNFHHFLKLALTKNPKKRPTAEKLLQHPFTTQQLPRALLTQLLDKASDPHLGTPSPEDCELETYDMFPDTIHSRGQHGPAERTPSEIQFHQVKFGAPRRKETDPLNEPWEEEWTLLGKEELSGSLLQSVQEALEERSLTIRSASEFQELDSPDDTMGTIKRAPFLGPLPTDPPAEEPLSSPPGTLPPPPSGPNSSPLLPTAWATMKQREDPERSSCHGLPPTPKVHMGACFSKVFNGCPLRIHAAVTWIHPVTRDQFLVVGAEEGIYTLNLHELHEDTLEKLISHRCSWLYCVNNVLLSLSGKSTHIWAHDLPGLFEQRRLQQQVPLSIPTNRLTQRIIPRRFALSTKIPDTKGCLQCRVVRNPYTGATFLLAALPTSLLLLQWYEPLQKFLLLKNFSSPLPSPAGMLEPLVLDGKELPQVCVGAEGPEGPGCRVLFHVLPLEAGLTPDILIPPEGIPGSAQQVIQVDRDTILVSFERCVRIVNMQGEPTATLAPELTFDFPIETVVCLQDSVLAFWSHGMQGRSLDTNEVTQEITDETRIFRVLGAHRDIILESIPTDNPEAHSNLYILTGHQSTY
# Procedure: as §1
# ILK = biological target: T2, ILK (Homo sapiens, UniProt Q13418); settings: MOLM-13, 2 h, 100 nM
# T2 sequence (Q13418 1-452): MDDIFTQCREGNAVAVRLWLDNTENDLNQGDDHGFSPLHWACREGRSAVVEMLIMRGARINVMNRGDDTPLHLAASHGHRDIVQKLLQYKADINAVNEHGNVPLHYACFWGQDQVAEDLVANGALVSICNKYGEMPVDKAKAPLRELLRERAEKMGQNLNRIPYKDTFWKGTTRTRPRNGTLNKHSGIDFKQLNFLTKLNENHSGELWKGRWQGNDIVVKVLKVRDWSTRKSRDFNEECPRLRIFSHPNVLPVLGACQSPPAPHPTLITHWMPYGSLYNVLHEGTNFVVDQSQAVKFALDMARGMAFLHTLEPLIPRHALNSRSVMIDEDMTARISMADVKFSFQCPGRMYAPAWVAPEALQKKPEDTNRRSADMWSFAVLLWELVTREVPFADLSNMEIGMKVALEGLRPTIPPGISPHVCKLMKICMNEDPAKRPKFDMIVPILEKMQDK
# Procedure: as §1
# JAK1 domain1 = biological target: T3, JAK1 domain1 (Homo sapiens, UniProt P23458); settings: 100 nM, 2 hours; Activation Loop
# T3 construct: JAK1 domain1
# Procedure: as §1
# MAP3K2 = MAP3K2 (Homo sapiens, UniProt Q9Y2U5); settings: MOLM-13; 100 nM, 2 hours; Lys1; read-out: Inhibition vs DMSO
# MAP3K2, sequence (Q9Y2U5 whole entry): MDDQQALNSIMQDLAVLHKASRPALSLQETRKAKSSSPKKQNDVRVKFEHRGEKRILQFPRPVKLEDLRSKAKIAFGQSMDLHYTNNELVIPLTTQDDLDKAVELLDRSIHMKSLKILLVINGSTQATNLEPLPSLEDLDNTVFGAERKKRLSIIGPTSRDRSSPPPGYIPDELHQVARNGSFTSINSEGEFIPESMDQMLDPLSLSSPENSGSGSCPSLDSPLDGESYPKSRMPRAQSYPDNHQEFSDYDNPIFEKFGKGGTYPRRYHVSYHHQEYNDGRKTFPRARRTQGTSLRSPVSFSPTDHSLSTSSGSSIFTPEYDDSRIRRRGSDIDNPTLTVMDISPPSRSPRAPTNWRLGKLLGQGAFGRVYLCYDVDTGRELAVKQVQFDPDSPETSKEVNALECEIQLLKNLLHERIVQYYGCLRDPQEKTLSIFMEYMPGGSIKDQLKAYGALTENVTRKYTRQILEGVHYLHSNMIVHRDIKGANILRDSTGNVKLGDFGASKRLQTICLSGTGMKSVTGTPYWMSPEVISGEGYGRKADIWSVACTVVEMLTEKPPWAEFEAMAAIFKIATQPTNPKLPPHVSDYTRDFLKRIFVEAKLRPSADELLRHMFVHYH
# Procedure: as §1
# MAP4K3 = MAP4K3 (Homo sapiens, UniProt Q8IVH8); settings: 100 nM, 2 hours; Lys2
# Procedure: as §1
# NEK1 = NEK1 (Homo sapiens, UniProt Q96PY6); settings: MOLM-13; 100 nM, 2 hours; Lys2; read-out: Inhibition vs DMSO
# Procedure: as §1
# PEK = PEK (Homo sapiens, UniProt Q9NZJ5); settings: 100 nM, 2 hours, Lys2, read-out: Inhibition vs DMSO
# Procedure: as §1
# RIPK3 = RIPK3 (Homo sapiens, UniProt Q9Y572); settings: MOLM-13; 100 nM, 2 hours; Lys2; read-out: Inhibition vs DMSO
# Procedure: as §1
# RSKL1 = RSKL1 (Homo sapiens, UniProt Q96S38); settings: MOLM-13; 100 nM, 2 hours; ATP; read-out: Inhibition vs DMSO
# Procedure: as §1
# STLK5 = biological target: T4, STLK5 (Homo sapiens, UniProt Q7RTN6); settings: MOLM-13, 2 h, 100 nM
# T4 sequence (Q7RTN6 1-431): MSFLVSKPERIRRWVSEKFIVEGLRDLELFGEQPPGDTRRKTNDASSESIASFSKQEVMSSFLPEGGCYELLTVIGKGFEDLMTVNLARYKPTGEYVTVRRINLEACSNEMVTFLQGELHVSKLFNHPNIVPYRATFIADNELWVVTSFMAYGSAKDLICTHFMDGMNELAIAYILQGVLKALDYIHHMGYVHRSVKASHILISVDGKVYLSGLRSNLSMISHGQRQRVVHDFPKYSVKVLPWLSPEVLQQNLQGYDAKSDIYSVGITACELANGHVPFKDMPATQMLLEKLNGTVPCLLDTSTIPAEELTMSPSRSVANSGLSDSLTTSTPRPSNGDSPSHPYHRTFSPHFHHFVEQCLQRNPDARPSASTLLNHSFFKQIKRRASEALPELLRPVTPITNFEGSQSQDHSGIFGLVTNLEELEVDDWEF
# Procedure: as §1
# p70S6K = p70S6K (Homo sapiens, UniProt P23443); settings: MOLM-13; 100 nM, 2 hours; Lys2; read-out: Inhibition vs DMSO
# Procedure: as §1
# [1] = Lys1, read-out: Inhibition vs DMSO
# [2] = Lys2, read-out: Inhibition vs DMSO
smiles,measurement,setting,value
CN1CCN(Cc2ccc(Nc3ncc(Cl)c(Nc4ccccc4S(=O)(=O)N(C)C)n3)cc2)CC1 [TP-0903],inhibition at 0.1 µM,AurB,60.1%
same,inhibition at 0.1 µM,CDK10,33.7%
same,inhibition at 0.1 µM,CDK5; [1],31.9%
same,inhibition at 0.1 µM,CDK5; [2],20.7%
same,inhibition at 0.1 µM,CDK6,80.8%
same,inhibition at 0.1 µM,DNAPK; EHPFLVKGGEDLR,11.7%
same,inhibition at 0.1 µM,DNAPK; KGGSWIQEINVAEK,8.3%
same,inhibition at 0.1 µM,GCK,29.8%
same,inhibition at 0.1 µM,ILK; [1],6.4%
same,inhibition at 0.1 µM,"ILK; Protein Kinase Domain, read-out: Inhibition vs DMSO",-1.3%
same,Inhibition vs DMSO,JAK1 domain1,82.7%
same,inhibition at 0.1 µM,MAP3K2,-7.5%
same,Inhibition vs DMSO,MAP4K3,45.4%
same,inhibition at 0.1 µM,NEK1,-21.7%
same,inhibition at 0.1 µM,PEK,1.7%
same,inhibition at 0.1 µM,RIPK3,6.4%
same,inhibition at 0.1 µM,RSKL1,-8.3%
same,inhibition at 0.1 µM,"STLK5; Activation Loop, read-out: Inhibition vs DMSO",4.2%
same,inhibition at 0.1 µM,STLK5; [2],-19%
same,inhibition at 0.1 µM,p70S6K,-32.8%
